Biological target: DNMT1 (Homo sapiens, UniProt P26358)
Experiment: biolayer interferometry (Octet K2), His-tagged DNMT1 on NTA biosensor
Assay type: binding

Sequence of DNMT1 (P26358 whole entry): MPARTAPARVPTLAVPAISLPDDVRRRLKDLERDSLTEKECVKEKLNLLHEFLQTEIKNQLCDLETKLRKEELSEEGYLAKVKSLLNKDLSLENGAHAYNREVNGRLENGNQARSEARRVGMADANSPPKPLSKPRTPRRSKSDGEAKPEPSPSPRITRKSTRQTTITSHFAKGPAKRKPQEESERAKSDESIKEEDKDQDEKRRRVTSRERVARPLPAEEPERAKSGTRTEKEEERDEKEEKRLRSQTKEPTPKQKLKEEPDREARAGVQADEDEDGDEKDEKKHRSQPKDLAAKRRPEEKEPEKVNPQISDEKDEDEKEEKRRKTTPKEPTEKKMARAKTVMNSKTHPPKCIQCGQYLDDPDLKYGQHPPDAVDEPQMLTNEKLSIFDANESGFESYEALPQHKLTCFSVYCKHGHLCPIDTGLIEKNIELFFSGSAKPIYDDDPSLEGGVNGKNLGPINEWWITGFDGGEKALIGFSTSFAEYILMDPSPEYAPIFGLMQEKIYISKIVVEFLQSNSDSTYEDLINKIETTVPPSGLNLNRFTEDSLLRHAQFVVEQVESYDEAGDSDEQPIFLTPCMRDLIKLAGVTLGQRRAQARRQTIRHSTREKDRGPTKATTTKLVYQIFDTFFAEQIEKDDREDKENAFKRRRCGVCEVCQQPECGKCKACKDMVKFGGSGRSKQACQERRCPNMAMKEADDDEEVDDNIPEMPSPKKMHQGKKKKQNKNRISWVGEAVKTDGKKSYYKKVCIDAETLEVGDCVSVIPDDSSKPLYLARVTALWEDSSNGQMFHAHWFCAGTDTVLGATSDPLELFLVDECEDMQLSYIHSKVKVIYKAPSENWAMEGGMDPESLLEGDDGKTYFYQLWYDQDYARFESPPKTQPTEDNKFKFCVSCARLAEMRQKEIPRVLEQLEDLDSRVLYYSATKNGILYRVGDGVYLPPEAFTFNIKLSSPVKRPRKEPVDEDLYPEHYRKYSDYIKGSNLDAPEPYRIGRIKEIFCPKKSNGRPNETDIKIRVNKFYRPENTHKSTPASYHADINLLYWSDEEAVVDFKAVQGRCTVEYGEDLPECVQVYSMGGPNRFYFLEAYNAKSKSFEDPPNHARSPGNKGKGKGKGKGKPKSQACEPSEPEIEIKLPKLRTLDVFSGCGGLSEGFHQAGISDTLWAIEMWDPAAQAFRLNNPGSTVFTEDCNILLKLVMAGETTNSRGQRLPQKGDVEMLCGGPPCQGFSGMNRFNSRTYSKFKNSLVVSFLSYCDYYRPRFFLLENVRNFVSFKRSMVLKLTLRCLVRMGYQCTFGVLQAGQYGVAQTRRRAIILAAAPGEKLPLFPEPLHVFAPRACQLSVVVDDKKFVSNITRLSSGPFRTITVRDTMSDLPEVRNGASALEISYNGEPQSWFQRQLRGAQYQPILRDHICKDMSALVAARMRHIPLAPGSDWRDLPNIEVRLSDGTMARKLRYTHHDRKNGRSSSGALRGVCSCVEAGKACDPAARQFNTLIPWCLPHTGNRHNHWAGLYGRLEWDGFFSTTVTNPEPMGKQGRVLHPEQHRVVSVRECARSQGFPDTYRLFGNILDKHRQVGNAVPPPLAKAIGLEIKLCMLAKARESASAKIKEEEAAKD

For Cc1cccc2c(NCc3ccc(C(=O)Nc4ccccc4N)cc3)c3ccccc3nc12 [8a, N-(2-aminophenyl)-4-(((4-methylacridin-9-yl)amino)methyl) benzamide], the Kd was 1.9 nM.

Reference: article PMC8197214, “8a, a New Acridine Antiproliferative and Pro-Apoptotic Agent Targeting HDAC1/DNMT1” (International Journal of Molecular Sciences, 2021)
